This is an account of results in patent US20240245677A1, “SELECTED COMPOUNDS FOR TARGETED DEGRADATION OF BRD9” (C4 THERAPEUTICS, INC., priority 2021, published 2024).

In series [1] the target is T1, GSPT1 (Homo sapiens, UniProt P15170+Q96SW2).
T1 construct: CRISPR-edited to endogenously express HiBiT tagged GSPT1; host or cells: HEK293T.114
Nature of the series: GSPT1 HiBiT degradation assay in HEK293T.114 cells. The class given is cell-based. Particulars: 6 hours. The text has this:
This assay evaluated the off-target degradation of the cereblon neosubstrate, Eukaryotic peptide chain release factor GTP-binding subunit ERF3A (GSPT1), induced by treatment with Compound 1 as measured by luminescence using Nano-Glo HiBiT® Lytic Assay System in 293T cells CRISPR-edited to endogenously express HiBiT tagged GSPT1.
Nano-Glo® HiBiT Lytic Assay System was purchased from Promega (Catalog No. N3050, Madison, WI, USA). HEK293T cells were obtained from ATCC (Catalog No. CRL-3216, Manassas, VA, USA), and maintained in DMEM medium (Catalog No. 11995065, ThermoFischer Scientific, Waltham, MA, USA) supplemented with 10% heat inactivated FBS (Catalog No. 16000-044, Gibco, Grand Island, NY, USA) at 37° C. in an atmosphere of 5% CO2 in air. The HiBiT polypeptide tag was introduced into the N-terminus of the endogenous GSPT1 locus by CRISPR-Cas9 to produce the HEK293T.114 modified cell line. The HiBiT polypeptide allows reconstitution of NanoBiT enzyme following cell lysis and addition of the complementing LgBiT polypeptide that activates substrate to produce a luminescent signal that is directly proportional to the amount of HiBiT-tagged GSPT1.
HEK293T.114 cells were routinely sub-cultured to maintain cell density between 30-80% confluence, not to exceed 20 passages. Cells were washed with PBS, trypsinized for 5 minutes at 37° C., and resuspended in fresh growth media without phenol red. An aliquot was diluted 2× with Trypan Blue solution 0.4% (Catalog No. 15250061, ThermoFisher Scientific, Waltham, MA, USA) and cell count determined. Cell concentration was adjusted with growth media without phenol red to 2×10^5 cells/mL.
The 10 mM DMSO stock solutions of Compound 1 or CC0885 were serially diluted (half log) in DMSO to generate 11-point dose series (10000, 3160, 1000, 316, 100, 31.6, 10, 3.2, 1, 0.32, 0.1 μM) in an acoustic ready 384-well low dead volume microplate (Catalog No. LP-0200, Beckman Coulter Life Sciences, Indianapolis, IN, USA). Using an Echo 550 Acoustic Liquid Handler (Beckman Coulter Life Sciences, Indianapolis, IN, USA), 30 nL of serially diluted compound solutions were dispensed in duplicate to each 384-well black TC-treated microplate (Catalog No. 3571, Corning, Glendale, CA, USA). 30 nL DMSO was transferred to all control wells.
30 μL of HEK293T.114 cells suspended in growth media without phenol red at 2×10^5 cells/mL (6000 cells/well) were dispensed using a Multidrop Combi Reagent Dispenser (Catalog No. 5840300, ThermoFisher Scientific, Waltham, MA, USA) to each well of columns 1-23 of 384-well black TC-treated microplates containing duplicate concentration range of test compounds and DMSO controls. 30 μL of media was dispensed to column 24 as background positive control (P). Plates were spun briefly at 1000 rpm and cells were incubated at 37° C., 5% CO2 for 6 hours. Final concentration of DMSO was 0.1% for all samples.
Cellular GSPT1 protein level was determined based on quantification of HiBiT using Nano-Glo® HiBiT Lytic Assay System (Promega). 30 μL Nano-Glo Lytic Assay reagents were added to each well of columns 1-23 and luminescence was acquired on EnVision® Multilabel Reader (Catalog No. 2104-0010, Perkin Elmer Inc., Dumfries, VA, USA). Column 24 (cells without Nano-Glo reagent addition) was used as plate background or positive control (P). Cells treated in the absence of the test compound (0.1% DMSO vehicle) were the negative control (N)/
Percent response of compound-treated samples (T) were calculated by normalizing to the DMSO treated negative (N) controls on the same microtiter plate after background (i.e., positive control) signal subtraction:
Curve fit and DC50 (concentration that degrades 50% GSPT1) determination was performed by 4 parametric logistic fit analysis using software such as GraphPad Prism software (GraphPad Software, LLC, San Diego, CA, USA). […]
On the technique in general: With HiBiT, luminescence reflects the tagged protein that the partner subunit can reach.

A short description of series [2]: Variable temperature XRPD (VT-XRPD) experiments. The class given is physicochemical. The method, then:
To investigate form conversion behavior, variable temperature XRPD experiments were conducted for hydrate Pattern A, hydrate Pattern C, hydrate Pattern F and hetero-solvate Pattern L.
Based on DSC and TGA results, variable temperature XRPD was conducted for Pattern A, at different temperatures, including 25° C., 110° C. and 25° C.
Based on DSC and TGA results, variable temperature XRPD was conducted for Pattern B, at different temperatures, including 25° C., 80° C., 130° C. and 25° C. The sample after heating-cooling was placed at 25° C./75% RH condition for 1 day and investigated by XRPD.
Based on DSC and TGA results, variable temperature XRPD was conducted for Pattern C, at different temperatures, including 25° C., 110° C. and 25° C.
Based on DSC and TGA results, variable temperature XRPD was conducted for Pattern F at different temperatures, including 25° C., 110° C. and 25° C. The sample after heating-cooling was placed at 25° C./75% RH condition for 1 day and investigated by XRPD.
Based on DSC and TGA results, variable temperature XRPD was conducted for Pattern L, at different temperatures, including 25° C., 100° C., 140° C., 180° C. and 25° C. The sample after heating-cooling was placed at 25° C./92% RH condition for 24 h and investigated by XRPD.

Series [3] is described as follows: in vitro. Particulars: plasma, 3 h, 2 µM. Here is the method: Plasma protein binding (PPB) of Compound 1 was evaluated in plasma from mice, rats, dogs, cynomolgus monkeys, and humans using ultracentrifugation.
Frozen plasma from CD-1 mice, Sprague-Dawley rats, beagle dogs, cynomolgus monkeys, and humans was purchased and stored at ≤−30° C. On the day of study, plasma samples of CD-1 mice, Sprague-Dawley rats, beagle dogs, cynomolgus monkeys and humans were thawed under running cold tap water and centrifuged to remove any particulates.
For the internal standard, telmisartan, a 1 mg/mL solution was prepared by dissolving 1.4 mg of telmisartan in 1.4 mL of DMSO, and stored at 4° C.
The 10 mM stock solution of each test compound was used to prepare 400 μM intermediate stocks in methanol. Then, a 2 μM working stock of each test compound was prepared for plasma from each species (mouse, rat, dog, monkey, and human) by spiking 12 μL of the 400 μM intermediate stock for each test compound into 2400 μL of thawed and prepared plasma from a test species.
400 μL of blank plasma for each species was transferred to a 0.5 mL Beckman tube (Part No. 343776, Beckman Coulter Life Sciences, Indianapolis, IN, USA) and centrifuged for 3 hours at 627000×g at 37° C. The supernatant was removed and kept at room temperature.
To prepare for ultracentrifugation, the rotor of the centrifuge was placed into an incubator and warmed up to 37° C. before centrifugation. The vacuum switch of the OPTIMA™ MAX-TL Ultracentrifuge (Beckman Coulter Life Sciences, Indianapolis, IN, USA) was turned on and the vacuum was reduced to less than 10 microns to warm up the system. The ultracentrifuge's parameters were set to the following: Temperature—37° C.; Time—3 hours; and Speed—627000×g. For each species and each test compound, 2.4 mL of working stock was mixed and pre-incubated for 45 minutes at 37° C. Then, 60 μL was separated and precipitated with 200 μL of acetonitrile containing internal standard and labeled as (TO), and 0.4 mL (triplicates) were transferred to Beckman 2 mL tubes (Part No. 344625, Beckman Coulter Life Sciences, Indiana, IN, USA).
For each species and each test compound, the triplicate 0.4 mL sample tubes were centrifuged for 3 hours at 627000×g at 37° C. […] At 45 minutes, 60 μL was separated, precipitated with 200 μL of acetonitrile containing internal standard and labelled as (T45). After completion of 3 hours, 60 μL of incubated samples were separated, precipitated with acetonitrile containing internal standard, and labeled as (T3).
After completing the 3 hours of centrifugation, 30 μl of the top fraction of supernatant from each sample tube was removed (free fraction) and precipitated with acetonitrile containing internal standard (labeled as top sample).
After removing 30 μL of the top fraction, remaining top and bottom layer were mixed thoroughly to make a uniform mixture. From this mixture, 30 μL of bottom sample was collected and precipitated with acetonitrile containing internal standard (labelled as bottom sample).
Matrix matching was done for crashed stability samples (TO, T45 and T3 samples) by adding 30 μL of a 50:50 mixture of blank plasma supernatant and phosphate-buffered saline (PBS), and for top and bottom samples, by adding 30 μL of blank plasma (kept at room temperature).
All the stability samples and centrifuged samples were vortexed at 1000 rpm for 5 minutes and centrifuged at 4000 rpm for 10 minutes. Supernatant from each sample was separated, diluted 2-fold with water, and analyzed in LC-MS/MS.
Samples (supernatant-free fraction and total plasma) were analyzed by LCMS-MS (no standards).

Where only a bound is given, the exact number is not on record here.

T1 sequence (P15170 whole entry): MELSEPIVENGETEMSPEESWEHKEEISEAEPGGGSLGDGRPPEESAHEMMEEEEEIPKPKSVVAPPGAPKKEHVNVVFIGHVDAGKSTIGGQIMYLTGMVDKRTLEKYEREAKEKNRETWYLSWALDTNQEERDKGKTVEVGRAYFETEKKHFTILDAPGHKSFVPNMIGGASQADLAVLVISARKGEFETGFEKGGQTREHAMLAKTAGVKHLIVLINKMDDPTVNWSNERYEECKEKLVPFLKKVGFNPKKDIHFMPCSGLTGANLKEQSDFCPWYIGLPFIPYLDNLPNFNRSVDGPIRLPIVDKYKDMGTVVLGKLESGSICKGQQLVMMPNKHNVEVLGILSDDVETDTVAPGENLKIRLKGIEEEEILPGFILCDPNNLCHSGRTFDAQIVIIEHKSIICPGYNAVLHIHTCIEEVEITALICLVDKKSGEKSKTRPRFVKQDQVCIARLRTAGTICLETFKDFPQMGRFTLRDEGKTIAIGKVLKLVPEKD
T1 sequence (Q96SW2 whole entry): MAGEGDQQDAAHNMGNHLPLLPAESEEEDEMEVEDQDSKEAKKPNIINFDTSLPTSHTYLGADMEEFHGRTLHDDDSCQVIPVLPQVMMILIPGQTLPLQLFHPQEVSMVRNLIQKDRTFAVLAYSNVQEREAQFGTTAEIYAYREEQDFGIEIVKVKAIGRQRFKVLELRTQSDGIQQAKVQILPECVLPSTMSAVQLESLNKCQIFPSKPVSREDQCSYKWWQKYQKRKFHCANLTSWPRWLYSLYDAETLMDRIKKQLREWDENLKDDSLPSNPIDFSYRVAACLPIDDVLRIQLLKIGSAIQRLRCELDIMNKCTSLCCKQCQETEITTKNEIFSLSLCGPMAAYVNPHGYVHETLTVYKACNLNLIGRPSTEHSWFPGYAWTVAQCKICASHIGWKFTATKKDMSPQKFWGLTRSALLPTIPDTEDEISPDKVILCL
T1 sequence (Q16531 2-1140 partner limits assumed): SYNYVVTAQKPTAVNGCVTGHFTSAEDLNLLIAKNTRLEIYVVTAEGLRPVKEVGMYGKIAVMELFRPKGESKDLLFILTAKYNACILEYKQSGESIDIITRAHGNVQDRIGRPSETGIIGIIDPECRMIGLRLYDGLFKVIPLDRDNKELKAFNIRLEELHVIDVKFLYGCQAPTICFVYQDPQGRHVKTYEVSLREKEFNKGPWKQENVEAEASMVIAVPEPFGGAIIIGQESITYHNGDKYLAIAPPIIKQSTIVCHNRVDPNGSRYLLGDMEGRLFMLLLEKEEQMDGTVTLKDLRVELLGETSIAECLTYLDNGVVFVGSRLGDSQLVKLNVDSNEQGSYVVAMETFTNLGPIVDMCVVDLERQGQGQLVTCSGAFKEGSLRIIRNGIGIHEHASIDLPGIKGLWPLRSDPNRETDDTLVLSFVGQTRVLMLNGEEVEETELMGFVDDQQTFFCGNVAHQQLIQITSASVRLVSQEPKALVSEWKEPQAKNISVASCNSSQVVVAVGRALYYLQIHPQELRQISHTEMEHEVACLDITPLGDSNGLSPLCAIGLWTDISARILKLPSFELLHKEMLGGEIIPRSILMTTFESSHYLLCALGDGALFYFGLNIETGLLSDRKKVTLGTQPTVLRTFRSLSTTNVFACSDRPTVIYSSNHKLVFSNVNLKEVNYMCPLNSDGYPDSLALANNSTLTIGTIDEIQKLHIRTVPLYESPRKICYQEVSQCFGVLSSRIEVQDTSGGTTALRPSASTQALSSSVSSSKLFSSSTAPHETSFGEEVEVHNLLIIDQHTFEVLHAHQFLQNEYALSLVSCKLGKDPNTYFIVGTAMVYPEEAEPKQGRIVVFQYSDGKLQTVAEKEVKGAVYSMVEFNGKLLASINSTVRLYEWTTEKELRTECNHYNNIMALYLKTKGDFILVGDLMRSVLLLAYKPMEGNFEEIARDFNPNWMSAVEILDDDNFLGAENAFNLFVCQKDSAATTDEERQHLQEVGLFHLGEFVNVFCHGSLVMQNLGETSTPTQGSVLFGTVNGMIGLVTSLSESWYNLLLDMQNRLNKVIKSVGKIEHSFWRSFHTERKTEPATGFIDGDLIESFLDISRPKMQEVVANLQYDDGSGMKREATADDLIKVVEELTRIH

Regarding `Cc1ccc(NC(=O)NCc2ccc3c(c2)CN(C2CCC(=O)NC2=O)C3=O)cc1Cl` (stereo not shown) [CC-885, reference compound], the “% GSPT1 Remaining, Mean” value in series [1] (0.100 nM) was found to be 106.2%; in series [1] (0.316 nM), 99.3%; in series [1] (1.00 nM) it was 96.4%; in series [1] (3.15 nM) it was 101.9%; in series [1] (10.0 nM), 107.2%; in series [1] (31.5 nM) it was 102.5%. For the same molecule, the “% GSPT1 Remaining, Mean” value in series [1] (100 nM) turned out to be 102.6%; in series [1] (317 nM) it was 100.9%; in series [1] (1000 nM) it was 101.1%; in series [1] (3161 nM), 103.2%; in series [1] (9990 nM), 98.8%. Also, the “Mean Emax (%) ± SD” value in series [1] (GSPT1-HiBiT, HEK293T.114 cells) is on record as 92.85 ± 1.30%. In addition, the DC50 (as a rule, the midpoint of the concentration-degradation curve) in series [1] (GSPT1-HiBiT, HEK293T.114 cells, read-out: Geometric Mean DC50) turned out to be 1.93 nM. For the same molecule, the “degradation of GSPT1 induced” value in series [1] (positive control) was over 95%.

As to `COc1cc(-c2cn(C)c(=O)c(C)c2C)cc(OC)c1CN1CC[C@H](N2CCN(c3ccc(N[C@H]4CCC(=O)NC4=O)cc3F)CC2)C(F)(F)C1` [Pattern B], the XRPD entry in series [2] (25° C. (start)) was “Pattern B”.

Take `COc1cc(-c2cn(C)c(=O)c(C)c2C)cc(OC)c1CN1CC[C@H](N2CCN(c3ccc(N[C@H]4CCC(=O)NC4=O)cc3F)CC2)C(F)(F)C1` [Pattern C]: the XRPD result is recorded as “Pattern C” in series [2] (25° C. (start)), “Pattern C” in series [2] (25° C./50% RH hold 2 h), “Metastable Pattern I” in series [2] (Cool to 25° C.) and “Metastable Pattern I” in series [2] (Heat to 110° C.).

As to `COc1cc(-c2cn(C)c(=O)c(C)c2C)cc(OC)c1CN1CC[C@H](N2CCN(c3ccc(N[C@H]4CCC(=O)NC4=O)cc3F)CC2)C(F)(F)C1` [Pattern F], the XRPD result in series [2] (25° C. (start)) was “Pattern F”; in series [2] (Cool to 25° C.) it was “Pattern H”; in series [2] (Heat to 110° C.), “Pattern H”.

Consider `COc1cc(-c2cn(C)c(=O)c(C)c2C)cc(OC)c1CN1CC[C@H](N2CCN(c3ccc(N[C@H]4CCC(=O)NC4=O)cc3F)CC2)C(F)(F)C1` [Pattern L], for which the XRPD result in series [2] (25° C. (start)) is “Pattern L”; in series [2] (25° C./92.5% RH hold 1 day), “Pattern M”; in series [2] (Cool to 25° C.), “Pattern M”; in series [2] (Heat to 100° C.), “Pattern L”.

For the molecule `CC(=O)CC(c1ccccc1)c1c(O)c2ccccc2oc1=O` (stereo not shown) [Warfarin, reference compound], the “% Remaining at 3 hours” value is given as 107.21% in series [3] (CD-1, mouse); 88.82% in series [3] (Sprague-Dawley, rat); 111.42% in series [3] (beagle, dog); 91.67% in series [3] (human); 115.61% in series [3] (monkey).
